These are literature values, as cited in patent US12201111B2, “Glyphosate formulations containing amidoalkylamine surfactants” (Monsanto Technology LLC, priority 2016, dated 2025).

For the series the following is noted: glyphosate in its acid form; 25° C.

Take `O=C(O)CNCP(=O)(O)O` [glyphosate, N-phosphonomethylglycine]: the solubility in water is 1.16 % by weight.
